# Test results: patent publication US20080160019A1, “SEQUENTIAL COMBINATION THERAPY” (DYAX CORP., priority 2006, published 2008)
# Tests used:
# [1] = target: Tie1 (Homo sapiens, UniProt P35590); conditions: cited from earlier work
# [2] = tested on: DU 145 human prostate tumor model; assay: DU 145 prostate tumor model, mean tumor volume (Example 6); assay type: in vivo, nude mice (nu/nu); conditions: 20 mg/kg IP Q2D x17 from day 1
# Method: Male nude mice (nu/nu) were injected subcutaneously with DU 145 cells harvested from tissue culture (˜1×10^7 cells/mouse). When tumors grew to approximately 95 mm^3 in size (about 7 days following injection), animals were pair-matched by tumor size into treatment and control groups.
# Treatment was initiated after the animals were paired-matched (day 1). Animals in control and treatment groups were dosed by weight (10 ml/kg). DX-2240 and the control IgG (palivizumab) were administered by IP injection either once every other day for seventeen treatments beginning day 1 or once every four days for nine treatments beginning day 1. Sorafenib was dosed per os via gavage once daily for nine treatments beginning day 15. To serve as a control, the control IgG was administered every other day for seventeen treatments beginning day 1. Individual and group mean tumor volumes were recorded twice weekly from day 1 until day 57.
# [3] = tested on: tumor vasculature; assay: Lectin staining of tumors (tumor vasculature, Example 5); assay type: in vivo, nude mice (nu/nu); conditions: for lectin staining, High intensity (3+) / lectin staining, Low intensity (1+) / lectin staining, Medium intensity (2+): 20 mg/kg IP Q2D from day 1, BxPC3 tumors; on lectin staining, High intensity (3+): unit not given here; on lectin staining, Low intensity (1+): unit not given here; on lectin staining, Medium intensity (2+): unit not given here
# Method: To determine changes in tumor vasculature, three animals from each of groups 1 and 2 were randomly selected for destructive sample collection, including tumor and serum on days 5, 10, 15, and 20. Animals were injected IV with 150 μL of a biotinylated-lectin solution (no injections on day 5 and 15). Five minutes later, animals were perfused by intracardiac injection with a 1% paraformaldehyde solution in PBS for 3 minutes. Tumors were then collected, placed in the perfusion solution, and sent immediately for analysis. Blood was collected by cardiac puncture and serum extracted, flash frozen in liquid nitrogen, and stored at −80° C.
# [4] = tested on: BxPC-3 human pancreas cancer model; assay: BxPC-3 pancreas cancer model, dosing schedules, mean tumor volume (Example 5); assay type: in vivo, nude mice (nu/nu); conditions: 20 mg/kg IP Q2D x10 from day 1, implanted tumor fragments
# Method: Female nude mice (nu/nu) were divided into 14 groups. Animals in groups 1-12 were implanted subcutaneously by trocar with BxPC3 tumor fragments harvested from growing tumors in nude mice hosts. Mice in groups 13-14 were injected subcutaneously with approximately 1×10^7 BxPC-3 cells from tissue culture. When injected tumors grew to approximately 104 mm^3 in size (about 19 days following implantation) and implanted tumors grew to approximately 110 mm^3 in size (about 22 days following implantation) animals were pair-matched by tumor size into treatment and control groups. Animals from groups 1 and 2 were used to evaluate tumor vasculature. Animals from groups 13 and 14 were used to compare effects of DX-2240 on tumors formed from cell injection.
# Treatment was initiated after the animals were pair-matched (day 1). Animals in all groups were dosed by weight (10 ml/kg). The control IgG and DX-2240 were administered by IP injection at 20 mg/kg, and bevacizumab and the rat α-mouse VEGF IgG antibody were administered by IP injection at 10 mg/kg once every three days. Dosing was initiated on day −3, 1, 5, 6, 10 or 20.
# Individual and group mean tumor volumes were recorded twice weekly from day 1 until day 39.
# [5] = tested on: BxPC3 (human pancreatic cancer cell line) tumor; assay: Pancreatic cancer xenograft model, tumor size by calipers (Example 3); assay type: in vivo, nude mice (nu/nu); conditions: for calculated tumor growth rate, After Avastin / calculated tumor growth rate, Before Avastin (Day 21) / calculated tumor growth rate, Before Avastin (Day 10): DX-2240 or control IgG 20 mg/kg IP Q2d from day 1; for calculated tumor growth rate, Before Avastin (Day 21): before bevacizumab (twenty day pretreatment groups); for calculated tumor growth rate, Before Avastin (Day 10): before bevacizumab start at day 10; for tumor size as compared to control: as single agents; on calculated tumor growth rate, After Avastin: unit not given here; on calculated tumor growth rate, Before Avastin (Day 10): unit not given here; on calculated tumor growth rate, Before Avastin (Day 21): unit not given here
# Method: The antitumor activity of combinations of DX-2240 and bevacizumab (anti-VEGF antibody) or sorafenib (multi-kinase inhibitor) were tested in a human tumor xenograft model. BxPC3 (human pancreatic cancer cell line) tumor fragments harvested from host nude mice (nu/nu) bearing subcutaneous BxPC-3 tumors were implanted subcutaneously into female nude mice (study animals) and allowed to form tumors. Mice were pair matched by tumor size and randomized into the various treatment groups when the tumors reached approximately 100 mm^3 (about 18 days following tumor implantation). The animals were assorted into the treatment groups shown in Table 1 (“Start” refers to the day on which treatment was begun). DX-2240 was administered by intraperitoneal (IP) injection at 20 mg/kg; bevacizumab was administered by IP injection at 10 mg/kg, sorafenib was administered orally at 60 mg/kg (for a total of 9 doses), and the control IgG (palivizumab, an antibody of the same isotype as DX-2240) was administered by IP injection at 20 mg/kg at the indicated dosing start dates and dosing regimens. An additional positive control group (group 13) was included: these animals were dosed with gemcitabine at 40 mg/kg Q3d for a total of four doses.
# Tumor size was evaluated every three to four days using calipers.
# [6] = after bevacizumab 10 mg/kg IP Q3d (twenty day pretreatment groups)
# [7] = after bevacizumab 10 mg/kg IP Q3d started at day 10
# [8] = DX-2240 or control IgG from day 1, bevacizumab (Avastin) after twenty day pretreatment
# [9] = DX-2240 or control IgG from day 1, bevacizumab (Avastin) from day 10
# [10] = day 1, 20 mg/kg IP Q2d from day 1
# [11] = day 3, 20 mg/kg IP Q2d from day 1
# [12] = day 7, 20 mg/kg IP Q2d from day 1
# [13] = day 10, 20 mg/kg IP Q2d from day 1
# [14] = day 14, 20 mg/kg IP Q2d from day 1
# [15] = day 21, 20 mg/kg IP Q2d from day 1
# [16] = day 24, 20 mg/kg IP Q2d from day 1
# [17] = day 28, 20 mg/kg IP Q2d from day 1
# [18] = day 31, 20 mg/kg IP Q2d from day 1
# Tie1, sequence (P35590 22-1138): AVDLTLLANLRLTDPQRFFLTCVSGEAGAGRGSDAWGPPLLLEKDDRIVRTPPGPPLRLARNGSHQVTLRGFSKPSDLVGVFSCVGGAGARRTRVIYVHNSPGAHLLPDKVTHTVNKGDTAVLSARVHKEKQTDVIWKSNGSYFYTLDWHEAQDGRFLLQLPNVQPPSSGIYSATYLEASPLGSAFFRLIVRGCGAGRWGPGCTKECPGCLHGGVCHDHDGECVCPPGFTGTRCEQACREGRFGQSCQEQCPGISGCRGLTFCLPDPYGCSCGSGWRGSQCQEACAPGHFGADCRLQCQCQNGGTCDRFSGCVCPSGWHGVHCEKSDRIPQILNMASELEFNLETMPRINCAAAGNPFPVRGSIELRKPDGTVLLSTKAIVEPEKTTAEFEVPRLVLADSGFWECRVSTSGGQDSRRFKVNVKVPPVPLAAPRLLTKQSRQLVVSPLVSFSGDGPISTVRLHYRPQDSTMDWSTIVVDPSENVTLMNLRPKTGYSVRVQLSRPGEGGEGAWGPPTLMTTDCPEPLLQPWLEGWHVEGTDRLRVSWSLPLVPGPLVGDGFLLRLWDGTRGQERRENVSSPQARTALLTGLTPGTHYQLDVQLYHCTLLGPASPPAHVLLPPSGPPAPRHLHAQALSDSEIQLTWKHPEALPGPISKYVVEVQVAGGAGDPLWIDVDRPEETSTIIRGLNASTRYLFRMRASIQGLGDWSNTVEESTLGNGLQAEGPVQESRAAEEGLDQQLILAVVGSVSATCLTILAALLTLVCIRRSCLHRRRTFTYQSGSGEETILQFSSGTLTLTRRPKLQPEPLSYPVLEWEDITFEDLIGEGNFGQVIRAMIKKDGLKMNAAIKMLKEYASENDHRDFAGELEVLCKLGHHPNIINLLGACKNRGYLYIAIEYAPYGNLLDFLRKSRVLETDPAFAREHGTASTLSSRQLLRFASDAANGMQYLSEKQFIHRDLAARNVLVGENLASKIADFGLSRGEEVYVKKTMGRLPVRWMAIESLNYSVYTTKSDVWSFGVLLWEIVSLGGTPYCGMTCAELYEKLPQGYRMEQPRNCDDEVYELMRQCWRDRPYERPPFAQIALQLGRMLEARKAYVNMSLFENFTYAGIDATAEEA
compound,measurement,setting,value
"DX-2240: Germlined F allotyped E3 antibody, Tie1 ectodomain-binding (SEQ ID NO:10-13)",Tie1 tyrosine phosphorylation,[1],induce
same,Tie complex formation,[1],induce
same,down modulation of Tie1 from the cell surface,[1],induce
same,Tie1/Tie2 heterodimers on the surface of cells expressing Tie1 and Tie2,"[1]; e.g., endothelial cells",down-modulation
same,mean tumor volume,[2]; day 1,94.6 mm^3
same,mean tumor volume,[2]; day 5,162.6 mm^3
same,mean tumor volume,[2]; day 9,269.3 mm^3
same,mean tumor volume,[2]; day 13,417.3 mm^3
same,mean tumor volume,[2]; day 15,460.0 mm^3
same,mean tumor volume,[2]; day 19,553.9 mm^3
same,mean tumor volume,[2]; day 23,644.4 mm^3
same,mean tumor volume,[2]; day 26,707.1 mm^3
same,mean tumor volume,[2]; day 29,737.8 mm^3
same,mean tumor volume,[2]; day 33,866.7 mm^3
same,mean tumor volume,[2]; day 36,1008.3 mm^3
same,lectin staining of tumors as compared to control animals,[3]; DX-2240 20 mg/kg IP Q2D,less lectin staining
same,functional tumor vasculature,[3]; DX-2240-treated animals,less functional tumor vasculature
same,"lectin staining, High intensity (3+)",[3]; Day 10,92134
same,"lectin staining, Low intensity (1+)",[3]; Day 10,909706
same,"lectin staining, Medium intensity (2+)",[3]; Day 10,3468512
same,"lectin staining, High intensity (3+)",[3]; Day 20,5922
same,"lectin staining, Low intensity (1+)",[3]; Day 20,122022
same,"lectin staining, Medium intensity (2+)",[3]; Day 20,205406
same,mean tumor volume,[4]; day 1,107.7 mm^3
same,mean tumor volume,[4]; day 4,157.7 mm^3
same,mean tumor volume,[4]; day 8,194.2 mm^3
same,mean tumor volume,[4]; day 11,199.0 mm^3
same,mean tumor volume,[4]; day 15,308.7 mm^3
same,mean tumor volume,[4]; day 18,289.1 mm^3
same,"calculated tumor growth rate, After Avastin",[5]; [6],18.6 ± 8.0
same,"calculated tumor growth rate, After Avastin",[5]; [7],12.2 ± 3.3
same,"calculated tumor growth rate, Before Avastin (Day 21)",[5],23.1 ± 6.6
same,"calculated tumor growth rate, Before Avastin (Day 10)",[5],23.9 ± 4.9
same,# of stable tumor growths or tumor regressions,[5]; [8],2/8
same,# of stable tumor growths or tumor regressions,[5]; [9],1/6
same,tumor size as compared to control,[5],reduced tumor size
same,Tumor volume,[5]; [10],105.6 mm^3
same,Tumor volume,[5]; [11],139.9 mm^3
same,Tumor volume,[5]; [12],223.1 mm^3
same,Tumor volume,[5]; [13],331.6 mm^3
same,Tumor volume,[5]; [14],460.5 mm^3
same,Tumor volume,[5]; [15],724.4 mm^3
same,Tumor volume,[5]; [16],954.1 mm^3
same,Tumor volume,[5]; [17],1171.1 mm^3
same,Tumor volume,[5]; [18],1351.4 mm^3
CNC(=O)c1cc(Oc2ccc(NC(=O)Nc3ccc(Cl)c(C(F)(F)F)c3)cc2)ccn1 [sorafenib],tumor size as compared to control,[5],reduced tumor size
Nc1ccn([C@@H]2O[C@H](CO)[C@@H](O)C2(F)F)c(=O)n1 [gemcitabine],Tumor volume,"[5]; day 1, 40 mg/kg Q3d, four doses (positive control group 13)",106.5 mm^3
same,Tumor volume,"[5]; day 3, 40 mg/kg Q3d, four doses (positive control group 13)",144.1 mm^3
same,Tumor volume,"[5]; day 7, 40 mg/kg Q3d, four doses (positive control group 13)",214.9 mm^3
same,Tumor volume,"[5]; day 10, 40 mg/kg Q3d, four doses (positive control group 13)",280.8 mm^3
same,Tumor volume,"[5]; day 14, 40 mg/kg Q3d, four doses (positive control group 13)",347.7 mm^3
same,Tumor volume,"[5]; day 21, 40 mg/kg Q3d, four doses (positive control group 13)",686.1 mm^3
same,Tumor volume,"[5]; day 24, 40 mg/kg Q3d, four doses (positive control group 13)",848.1 mm^3
same,Tumor volume,"[5]; day 28, 40 mg/kg Q3d, four doses (positive control group 13)",1084.8 mm^3
same,Tumor volume,"[5]; day 31, 40 mg/kg Q3d, four doses (positive control group 13)",1325.2 mm^3
"Control IgG: palivizumab, an antibody of the same isotype as DX-2240 [reference compound]",mean tumor volume,[2]; day 1,94.9 mm^3
same,mean tumor volume,[2]; day 5,125.7 mm^3
same,mean tumor volume,[2]; day 9,195.1 mm^3
same,mean tumor volume,[2]; day 13,293.5 mm^3
same,mean tumor volume,[2]; day 15,320.9 mm^3
same,mean tumor volume,[2]; day 19,400.7 mm^3
same,mean tumor volume,[2]; day 23,417.8 mm^3
same,mean tumor volume,[2]; day 26,487.6 mm^3
same,mean tumor volume,[2]; day 29,450.5 mm^3
same,mean tumor volume,[2]; day 33,501.1 mm^3
same,mean tumor volume,[2]; day 36,529.3 mm^3
same,"lectin staining, High intensity (3+)",[3]; Day 10,19242
same,"lectin staining, Low intensity (1+)",[3]; Day 10,1214685
same,"lectin staining, Medium intensity (2+)",[3]; Day 10,3148400
same,"lectin staining, High intensity (3+)",[3]; Day 20,7824
same,"lectin staining, Low intensity (1+)",[3]; Day 20,222879
same,"lectin staining, Medium intensity (2+)",[3]; Day 20,272402
same,mean tumor volume,[4]; day 1,107.6 mm^3
same,mean tumor volume,[4]; day 4,180.1 mm^3
same,mean tumor volume,[4]; day 8,237.7 mm^3
same,mean tumor volume,[4]; day 11,249.9 mm^3
same,mean tumor volume,[4]; day 15,355.9 mm^3
same,mean tumor volume,[4]; day 18,300.0 mm^3
same,"calculated tumor growth rate, After Avastin",[5]; [6],23.8 ± 8.6
same,"calculated tumor growth rate, After Avastin",[5]; [7],33.3 ± 6.6
same,"calculated tumor growth rate, Before Avastin (Day 21)",[5],28.3 ± 5.2
same,"calculated tumor growth rate, Before Avastin (Day 10)",[5],41.1 ± 9.0
same,# of stable tumor growths or tumor regressions,[5]; [8],1/8
same,# of stable tumor growths or tumor regressions,[5]; [9],0/8
same,Tumor volume,[5]; [10],106.9 mm^3
same,Tumor volume,[5]; [11],164.7 mm^3
same,Tumor volume,[5]; [12],293.2 mm^3
same,Tumor volume,[5]; [13],366.4 mm^3
same,Tumor volume,[5]; [14],521.8 mm^3
same,Tumor volume,[5]; [15],907.5 mm^3
same,Tumor volume,[5]; [16],1062.0 mm^3
same,Tumor volume,[5]; [17],1354.0 mm^3
same,Tumor volume,[5]; [18],1669.1 mm^3
